Source: paper PMC3004914, “Classification of Drugs Based on Properties of Sodium Channel Inhibition: A Comparative Automated Patch-Clamp Study” (PLoS ONE, 2010)
Where two headings read alike, the source gives them in different places.

How the values were obtained:
[1] = molecular target: T1, rNav1.2 sodium channels (HEK-293 cells) (Rattus norvegicus, UniProt P04775); experiment: 5 Hz train protocol, QPatch automated patch-clamp; format: cell-based; conditions: for potency estimated from few doses: −90 mV; for inhibition at 100 µM / τon / UD (use-dependence of the inhibition) / τoff / Rev (reversibility): 100 μM; for τoff: 500 s assigned where irreversible; for Rev (reversibility): Rev = A5/A1 after washout;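 for UD (use-dependence of the inhibition): UD = (A3/A4)/(A1/A2) as ratios of peak amplitudes from Figure 1A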
Text: The dynamics of the onset and offset of inhibition was monitored using 5 Hz trains of five depolarizing pulses from a holding potential of −90 mV to −10 mV. The trains were repeated every 20 s. Drugs were applied after 10 control trains and 10 trains were delivered in the presence of the drug. The drug was then washed out, and the 10 trains were repeated.
We measured inhibition (Inh; from which we calculated IC50 values as described in Materials and Methods), reversibility of inhibition (Rev) and use-dependence (UD), as well as time constant of onset (τon) and offset (τoff). The calculation of IC50, quantification of Rev and UD, and the determination of time constants are illustrated in Figure 1A. Because τon should be concentration-dependent if we assume a single binding reaction, we excluded it from the analyses. […] Comments on the interpretation of these properties (Rev, […] and UD) are in Results S1.
(§1) A)–D) Peak amplitudes of evoked currents (5 Hz trains of 5 depolarizations from −90 to −10 mV) are plotted against time. Black dots: Control. Grey dots: Drug perfusion. […] Calculation of properties of inhibition is illustrated. […] E) Calculation of Kr and Ki values from steady-state availability curves.
(§2) HEK-293 cells stably expressing rNav1.2 sodium channels were obtained from NeuroSearch (Ballerup, Denmark).
(§3) Cells were automatically prepared for application to the chips (centrifuged and washed twice, then resuspended in extracellular solution) as described previously. Composition of the extracellular solution was: (in mM): 140 NaCl, 3 KCl, 1 CaCl2, 1 MgCl2, 0.1 CdCl2, 20 TEA-Cl, 5 HEPES, adjusted to pH 7.3, Osmolality: ∼320 mOsm.
(§4) All electrophysiological experiments were conducted on Qpatch-16 or QPatch HT instruments using QPlate™ chips. For a detailed description of the instrument and the patch-clamp chips see [37], [38]. Data were sampled at a frequency of 25 kHz and filtered at 5 kHz. […] The amplifier was controlled and the data were collected by the Sophion QPatch client software. For initial data analysis the QPatch software was used. Built-in amplifiers provide an improved method for series resistance compensation. Leak subtraction (based on a standard P/n protocol) was used to subtract the capacitive component of currents.
From this protocol we extracted five parameters, as illustrated in Figure 1A. We calculated inhibition of a single “cc” concentration: Inh = (amplitudectr – amplitudedrug)/amplitudectr.

[2] = human plasma, cited from earlier work
[3] = molecular target: T1, rNav1.2 sodium channels (HEK-293 cells); experiment: steady-state inactivation protocol (availability curves), QPatch automated patch-clamp; format: cell-based; conditions: 100 µM; for inhibition at 100 µM: HEK293, read-out: Inh (inhibited fraction) at holding potential −150 mV
Text: as §1
Standard steady-state inactivation protocols were used to measure the shift of steady-state availability curve caused by the drugs. Currents were evoked by a 10 ms test pulse to −10 mV, preceded by 400 ms pre-pulses from −150 to −30 mV. […] Because the inhibition at hyperpolarized potentials (Inh−150), and the shift of the availability curves (ΔV1/2) are both concentration-dependent properties, we calculated affinities to hyperpolarized and depolarized states (“resting state affinity”: Kr, and “inactivated state affinity”: Ki), which, on the other hand, are concentration-independent characteristics of individual drugs. Calculation of Kr and Ki values are described in Materials and Methods, and illustrated in Figure 1E. State-dependence (SD) was quantified as the ratio Kr/Ki.
as §2, §3, §4
Inactivated affinity (Ki) values were calculated assuming a simple four-state model of drug binding and channel gating, using two separate methods: (1) from the shift of the availability curve (ΔV1/2), the slope of the Boltzmann fit of the availability curve (k) and Kr, using the formula described by Bean, Cohen and Tsien (Ki−ΔV1/2; see Figure 1E), or (2) from the apparent affinity (Kapp) at a certain pre-pulse potential, which was calculated from the inhibition (e.g. Inh−60) as described above, and the availability (h) at the same pre-pulse potential, using the formula from Kuo and Bean (Figure 1E). […] (Arithmetic means and SEM values are given in Results S7.)

[4] = HEK293, −90 mV holding potential, 5 Hz train, read-out: Inh (inhibited fraction)
[5] = HEK293, calculated from Inh at single concentration 100 μM, 5 Hz train, read-out: IC50
[6] = HEK293, 300 μM, −90 mV holding potential, 5 Hz train, read-out: Inh (inhibited fraction)
[7] = HEK293, calculated from Inh at single concentration 300 μM, 5 Hz train, read-out: IC50
[8] = arithmetic mean, read-out: Ki-Kapp arith
[9] = arithmetic mean, read-out: Ki-ΔV1/2 arith
[10] = arithmetic mean, read-out: Kr arith
[11] = geometric mean, from Inh at −150 mV, read-out: Kr (resting state affinity)
[12] = geometric mean, from apparent affinity, read-out: Ki−Kapp (inactivated state affinity)
[13] = geometric mean, from shift of availability curve, read-out: Ki−ΔV1/2 (inactivated state affinity)

T1 sequence (P04775 whole entry): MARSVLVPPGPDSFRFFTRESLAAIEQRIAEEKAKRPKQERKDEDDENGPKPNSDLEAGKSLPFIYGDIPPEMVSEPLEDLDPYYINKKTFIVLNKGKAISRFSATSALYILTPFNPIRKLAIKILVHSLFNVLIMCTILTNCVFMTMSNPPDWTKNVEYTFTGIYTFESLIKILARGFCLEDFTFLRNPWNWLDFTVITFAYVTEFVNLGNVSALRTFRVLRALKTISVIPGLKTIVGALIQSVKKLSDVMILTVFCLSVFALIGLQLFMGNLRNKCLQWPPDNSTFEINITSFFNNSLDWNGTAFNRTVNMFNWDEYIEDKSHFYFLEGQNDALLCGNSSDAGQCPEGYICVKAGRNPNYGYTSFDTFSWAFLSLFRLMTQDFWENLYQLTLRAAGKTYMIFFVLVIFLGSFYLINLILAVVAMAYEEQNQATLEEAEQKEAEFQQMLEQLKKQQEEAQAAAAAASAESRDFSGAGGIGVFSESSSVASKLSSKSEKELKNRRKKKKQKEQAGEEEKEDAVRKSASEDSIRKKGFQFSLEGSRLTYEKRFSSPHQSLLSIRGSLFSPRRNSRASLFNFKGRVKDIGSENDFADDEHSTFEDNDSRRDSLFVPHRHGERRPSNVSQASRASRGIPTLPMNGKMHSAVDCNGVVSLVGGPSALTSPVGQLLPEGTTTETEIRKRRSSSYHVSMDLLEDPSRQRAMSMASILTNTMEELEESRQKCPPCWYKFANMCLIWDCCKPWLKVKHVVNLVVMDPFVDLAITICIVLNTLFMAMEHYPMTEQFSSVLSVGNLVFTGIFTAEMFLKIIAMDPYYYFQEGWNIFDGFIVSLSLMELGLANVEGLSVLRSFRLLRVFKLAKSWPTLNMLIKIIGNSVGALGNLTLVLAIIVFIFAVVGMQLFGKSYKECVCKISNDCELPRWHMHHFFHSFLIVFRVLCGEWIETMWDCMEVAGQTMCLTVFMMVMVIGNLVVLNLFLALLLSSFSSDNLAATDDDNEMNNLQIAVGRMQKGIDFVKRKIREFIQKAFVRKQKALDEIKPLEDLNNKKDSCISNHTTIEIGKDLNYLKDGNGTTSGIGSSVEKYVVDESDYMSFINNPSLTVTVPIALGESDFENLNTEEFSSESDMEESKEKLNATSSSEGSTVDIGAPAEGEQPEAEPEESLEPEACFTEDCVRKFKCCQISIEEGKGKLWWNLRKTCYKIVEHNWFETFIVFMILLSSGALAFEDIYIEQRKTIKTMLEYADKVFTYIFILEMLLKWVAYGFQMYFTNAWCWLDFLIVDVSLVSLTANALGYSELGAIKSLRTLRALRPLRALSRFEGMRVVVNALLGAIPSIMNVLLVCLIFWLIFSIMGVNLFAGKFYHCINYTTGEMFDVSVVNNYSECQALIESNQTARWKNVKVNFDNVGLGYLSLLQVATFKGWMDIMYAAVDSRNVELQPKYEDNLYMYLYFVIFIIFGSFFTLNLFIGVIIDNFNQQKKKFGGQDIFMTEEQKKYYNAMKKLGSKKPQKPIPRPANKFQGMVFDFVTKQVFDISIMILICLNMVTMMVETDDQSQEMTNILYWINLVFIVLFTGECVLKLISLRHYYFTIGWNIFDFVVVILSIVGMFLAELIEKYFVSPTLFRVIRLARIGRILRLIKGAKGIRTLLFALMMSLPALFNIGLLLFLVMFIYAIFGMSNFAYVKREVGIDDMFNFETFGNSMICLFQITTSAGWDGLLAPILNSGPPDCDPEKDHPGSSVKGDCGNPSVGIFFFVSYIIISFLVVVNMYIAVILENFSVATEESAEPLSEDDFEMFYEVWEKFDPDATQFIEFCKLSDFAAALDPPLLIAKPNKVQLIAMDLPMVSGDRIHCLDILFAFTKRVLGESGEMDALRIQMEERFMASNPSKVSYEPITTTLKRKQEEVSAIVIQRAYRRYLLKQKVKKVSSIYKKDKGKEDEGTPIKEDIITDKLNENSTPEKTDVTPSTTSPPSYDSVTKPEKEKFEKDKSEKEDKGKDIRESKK

C#CCN(C)[C@H](C)Cc1ccccc1 [DPR, R-(-)-Deprenyl]
IC50 compared to plasma concentration [1]: exceedingly high
Inh (inhibited fraction) ([1]; 300 μM, −90 mV holding potential, 5 Hz train): 0.22

O=c1n(CCCN2CCN(c3cccc(Cl)c3)CC2)nc2ccccn12 [TRZ, Trazodone]
plasma conc. ([2]; as printed in each cell): 1.5 [44] µg/ml
plasma conc. ([2]; as printed in the µg/ml cell): 3.673 µM

NCC1(CC(=O)O)CCCCC1 [GAB, Gabapentin]
potency estimated from few doses ([1]; HEK293, read-out: IC50, calculated from Inh at single concentration 300 μM, 5 Hz train): 14700 µM
inhibition at 300 µM ([1]; HEK293, read-out: Inh (inhibited fraction)): 3%
plasma conc. ([2]; as printed in each cell): 4 [44] µg/ml
plasma conc. ([2]; as printed in the µg/ml cell): 23.359 µM

O=C(CCNNC(=O)c1ccncc1)NCc1ccccc1 [NIA, Nialamide]
inhibition at 100 µM [1, 4]: 3%
potency estimated from few doses [1, 5]: 3230 µM

CNC1(C)C2CCC(C2)C1(C)C (stereo not drawn) [MEC, Mecamylamine]
IC50 compared to plasma concentration [1]: exceedingly high
inhibition at 100 µM [1, 4]: 5%
potency estimated from few doses [1, 5]: 2760 µM
plasma conc. ([2]; as printed in each cell): 0.02 [60] µg/ml
plasma conc. ([2]; as printed in the µg/ml cell): 0.118 µM

CCN(CC)CCNC(=O)c1ccc(N)cc1 [PRC, Procainamide]
inhibition at 300 µM [1, 6]: 14%
potency estimated from few doses [1, 7]: 2010 µM

O=C(CCCN1CCC(O)(c2ccc(Cl)cc2)CC1)c1ccc(F)cc1 [HAL, Haloperidol]
plasma conc. ([2]; as printed in each cell): 0.02 [44] µg/ml
plasma conc. ([2]; as printed in the µg/ml cell): 0.053 µM

NS(=O)(=O)Cc1noc2ccccc12 [ZON, Zonisamide]
inhibition at 300 µM [1, 6]: 9%
potency estimated from few doses [1, 7]: 3030 µM
plasma conc. ([2]; as printed in each cell): 28.4 [44] µg/ml
plasma conc. ([2]; as printed in the µg/ml cell): 133.82 µM

CN1CCN2c3ncccc3Cc3ccccc3C2C1 (stereo not drawn) [MRZ, Mirtazapine]
inhibition at 100 µM [3]: 24%
Ki [3, 8]: 7.94 µM
Ki [3, 9]: 5.65 µM
Kd [3, 10]: 317 µM
Kd [3, 11]: 317 µM
Ki [3, 12]: 7.62 µM
Ki [3, 13]: 5.63 µM
τon [1]: 3.99 s
UD (use-dependence of the inhibition) ([1]; 5 Hz train): 1.14
τoff [1]: 7.47 s
Rev (reversibility) [1]: 0.89
inhibition at 100 µM [1, 4]: 43%
potency estimated from few doses [1, 5]: 132 µM

CN1CCN2c3ccccc3Cc3ccccc3C2C1 (stereo not drawn) [MIA, Mianserin]
plasma conc. ([2]; as printed in each cell): 0.01 [47] µg/ml
plasma conc. ([2]; as printed in the µg/ml cell): 0.037 µM

CN1CCN(C2=Nc3cc(Cl)ccc3Nc3ccccc32)CC1 [CLZ, Clozapine]
plasma conc. ([2]; as printed in each cell): 0.55 [44] µg/ml
plasma conc. ([2]; as printed in the µg/ml cell): 1.671 µM

CC1(C)O[C@@H]2[C@@H](CO[C@@]3(COS(N)(=O)=O)OC(C)(C)O[C@@H]23)O1 [TOP, Topiramate]
inhibition at 300 µM [1, 6]: 7%
potency estimated from few doses [1, 7]: 3990 µM
plasma conc. ([2]; as printed in each cell): 5.5 [44] µg/ml
plasma conc. ([2]; as printed in the µg/ml cell): 16.21 µM

CN[C@H]1CC[C@@H](c2ccc(Cl)c(Cl)c2)c2ccccc21 [SRT, Sertraline]
plasma conc. ([2]; as printed in each cell): 0.14 [44] µg/ml
plasma conc. ([2]; as printed in the µg/ml cell): 0.409 µM

CNCCC(Oc1ccc(C(F)(F)F)cc1)c1ccccc1 (stereo not drawn) [FLX, Fluoxetine]
plasma conc. ([2]; as printed in each cell): 0.38 [44] µg/ml
plasma conc. ([2]; as printed in the µg/ml cell): 1.099 µM

CCN(CC)CCNC(=O)c1cc(S(C)(=O)=O)ccc1OC [TIA, Tiapride]
inhibition at 300 µM [1, 6]: 7%
potency estimated from few doses [1, 7]: 3990 µM
plasma conc. ([2]; as printed in each cell): 0.56 [51] µg/ml
plasma conc. ([2]; as printed in the µg/ml cell): 1.535 µM

CNCCCC12CCC(c3ccccc31)c1ccccc12 [MPR, Maprotiline]
plasma conc. ([2]; as printed in each cell): 0.25 [45] µg/ml
plasma conc. ([2]; as printed in the µg/ml cell): 0.797 µM

CC(NC(C)(C)C)C(=O)c1cccc(Cl)c1 (stereo not drawn) [BPR, Bupropion]
inhibition at 100 µM [3]: 16%
Ki [3, 8]: 27.4 µM
Ki [3, 9]: 29.1 µM
Kd [3, 10]: 733 µM
Kd [3, 11]: 604 µM
Ki [3, 12]: 25.5 µM
Ki [3, 13]: 26 µM
τon [1]: 4.6 s
UD (use-dependence of the inhibition) ([1]; 5 Hz train): 1.04
τoff [1]: 12.45 s
Rev (reversibility) [1]: 0.92
inhibition at 100 µM [1, 4]: 15%
potency estimated from few doses [1, 5]: 565 µM

Fc1ccc(C(c2ccc(F)cc2)N2CCN(C/C=C/c3ccccc3)CC2)cc1 [FLR, Flunarizine]
plasma conc. ([2]; as printed in each cell): 0.06 [58] µg/ml
plasma conc. ([2]; as printed in the µg/ml cell): 0.113 µM

O=C(NCCN1CCOCC1)c1ccc(Cl)cc1 [MCL, Moclobemide]
inhibition at 100 µM [1, 4]: 9%
potency estimated from few doses [1, 5]: 1010 µM
plasma conc. ([2]; as printed in each cell): 0.29 [49] µg/ml
